Measured values taken from paper PMC12501029, “Discovery of a CNS active GSK3 degrader using orthogonally reactive linker screening” (Nature Communications, 2025).
Where two headings read alike, the source gives them in different places.

Legend:
[1] = tested on: GSK3β-HiBiT KI HEK293 cells; test: Multiplexed degradation and cell viability assay (Gly-Phe-AFC fluorescence); format: cell-based, human; details: up to 24 h and 1 μM (10 nM, 100 nM, 1 µM; 2, 4, 24 h)
Procedure: For viability tests, GSK3β-HiBiT KI HEK293 cells were seeded onto white-opaque 96-well plates at a density of 2 × 10^4 cells per well. After 16 h, cells were treated with test compounds or DMSO with indicated concentrations for 2, 4 and 24 h. Thirty minutes before the end of treatment, 20 µL of reaction buffer containing Gly-Phe-A FC substrate (1:200 in cell culture media, Chem Cruz, sc506265) added to the each well and cells were returned to cell culture incubator. At the end of the treatment time, HiBiT lytic reagents were prepared according to the manufacturer's instructions (Promega) and 120 µL of reagent dispensed to each well. Fluorescence (viability) and luminescence (degradation) signals were measured by GloMAX discover plate reader (Promega) at the same time. Obtained data analysed using Excel and GraphPad Prism (v10.1.2) as previously described above.

[2] = KH1 (24) intravenous PK/PD study: blood and brain levels, observation; format: in vivo, female Balb/c mice
Procedure: The intravenous formulation for KH1 (24) was prepared by dissolving the compound in DMSO. This was then diluted with PEG400, followed by dropwise addition of sterile water to form a complete solution. The resulting formulation consisted of 5% DMSO, 40% PEG400, and 55% water, and contained KH1 (24) at a concentration of 1.0 mg/mL.
For the PK/PD study for KH1 (24), three female Balb/c mice were given a bolus intravenous injection at a dose level of 5 mg/kg (5 mL/kg). Animals were observed regularly after dose administration. At 4 h after the administration of KH1 (24), all animals were placed under terminal anaesthesia with isoflurane. Blood was collected via cardiac puncture and the brain and liver were removed. Two aliquots of 10 µL blood were each diluted into 90 µL of Milli-Q ultrapure water. All diluted blood samples were stored at −20 °C prior to bioanalysis. A portion of the brain was stored at −20 °C awaiting bioanalysis, while the remaining brain and liver tissues were snap-frozen in liquid nitrogen and stored at −80 °C awaiting biological investigation. The concentration of KH1 (24) in whole blood and brain tissue was determined via UPLC-MS/MS.
Blood samples (10 µL) from study mice were diluted 1× with 90 µL of water immediately when the sample was taken. All calibration, quality control, blanks and double blank samples (all 100 µL volume) were mixed (vortexed) with 300 µL of LCMS grade acetonitrile to precipitate proteins.
For study samples, a volume (30 µL) was mixed (vortexed) with a volume (90 µL) of acetonitrile to precipitate proteins. After protein precipitation, all samples were centrifuged to pellet the proteins. Study samples in Micronics tubes were centrifuged using a Beckman Coutler Allegra C-12R Centrifuge for 10 min at 3750 rpm. All other samples in Eppendorf tubes were centrifuged using a Sigma SciQuip 1–14 centrifuge for 10 min (14,800 rpm/16,163 × g). Supernatant from study samples (80 µL) and calibration samples, QCs, blanks, and double blanks (200 µL) were then transferred to HPLC glass vials containing Milli-Q water (40 µL or 100 µL, respectively), ready for LCMS analysis.

Cn1nc(N2CCC(=O)NC2=O)c2ccc(CN3CCN(Cc4ccc(-c5cn(-c6ccc(-c7cn8nccc(C(=O)Nc9cnccc9N9CCOCC9)c8n7)cc6)nn5)nc4)CC3)cc21 [compound 24]
impact on cell viability [1]: no impact on cell viability | adverse signs in vivo ([2]; 5 mg/kg IV study and the lower IV/PO study): no adverse signs | Kp at 4 h ([2]; female, Balb/c, mouse, brain / whole blood, intravenous, 5 mg/kg i.v., 4 hours, read-out: Brain:Blood Ratio): 0.1 | concentration at 4 h ([2]; female, Balb/c, mouse, brain, intravenous, 5 mg/kg i.v., 4 hours, read-out: Mean Brain Concentration): 68 nM | concentration at 4 h ([2]; female, Balb/c, mouse, whole blood, intravenous, 5 mg/kg i.v., 4 hours, read-out: Mean Blood Concentration): 696 nM
